For assay [1], the target named is T1, NMDA receptor channel (GluN1a variant/GluN2B), wild-type (Rattus norvegicus, UniProt P35439+Q00960).
T1 construct: expressed in transfected cells; host or cells: Xenopus laevis oocytes (cRNA injection)
Put plainly: Outside-out patch recordings of NMDA receptor currents, wild-type channel expressed in Xenopus oocytes. Type of assay: cell-based. The protocol: (§1) The rat GluN1a variant and GluN2B cDNA clones were used in this study. Point mutations were made by site-directed mutagenesis using the QuickChange Site-Directed Mutagenesis kit (Stratagene, La Jolla, CA). Mutations were verified by DNA sequencing to ensure the lack of any inadvertent mutations. The capped cRNA transcripts were then synthesized using T7 and T3 mMESSAGE mMACHINE transcription kits (Ambion, Austin, TX), and were stored at −80 °C.
(§2) This study was carried out in accordance with the ethical information guidelines of the National Taiwan University College of Medicine. The protocols for the care and use of animals were approved by the National Taiwan University College of Medicine and College of Public Health Institutional Animal Care and Use Committee (IACUC). All efforts were made to minimize animal suffering. Adult female Xenopus laevis were anesthetized, and ovarian lobes containing stage V or VI oocytes were removed. Oocytes were dispersed after manual disruption of the egg sac, and were digested for 1 hr with collagenase type I (2 mg/ml) to remove the follicular layer. A mixture of GluN1a variant and GluN2B cRNAs with a ratio of 1:5 (i.e., 0.1–4 ng of GluN1a variant and 0.5–20 ng of GluN2B) (Kashiwagi et al. 2002) was injected into oocytes. Oocytes were maintained in the culture medium (96 mM NaCl, 2 mM KCl, 1.8 mM MgCl2, 1.8 mM CaCl2, 5 mM HEPES, and 50 ug/ml gentamycin, pH 7.6) at 18 °C for 2–3 days before electrophysiological recordings.
Oocytes were placed in a recording chamber containing Mg^2+-free bath solution (150 mM NaMeSO3, 5 mM NaCl, and 10 mM HEPES; pH 7.4). Outside-out patch recordings were obtained using fire-polished pipettes pulled from borosilicate capillaries (outer diameter, 1.55–1.60 mm; Hilgenberg, Malsfeld, Germany). Recording pipettes ([…]) were filled with the pipette solution containing 150 mM NaMeSO3, 5 mM NaCl, 5 mM EGTA, and 10 mM HEPES (pH 7.4). A seal was formed, and the outside-out patch configuration was obtained in Tyrode’s solution (150 mM NaCl, 4 mM KCl, 2 mM MgCl2, 2 mM CaCl2, and 10 mM HEPES; pH 7.4). The patch was then lifted from the bottom of the chamber and moved in front of a set of “theta glass” tubes (2.0 mm outer diameter pulled to an opening of ~300 μm in width; Warner Instrument, Hamden, CT) emitting external recording solutions. The standard external solution was Mg^2+-free Ca^2+-free Tyrode’s solution (pH 7.4), but 2 mM Ca^2+ or 0.1–100 μM Cd^2+ may be added to the external recording solution as specified in each different experimental condition. The glass-tube holder was connected to a stepper motor (SF-77B perfusion system, Warner Instrument) to achieve fast switch for rapid solution change. Drugs and salts were purchased from Sigma (St. Louis, MO). NMDA, glycine, and Cd^2+ were dissolved in water to make 100, 100, and 10 mM stock solutions, respectively. The stock solutions were then diluted into the external recording solution to make 1 to 100 μM Cd^2+, 1 to 300 μM NMDA, and 30 μM glycine. The NMDA currents were recorded at a membrane potential of −70 mV and at room temperature (~25 °C) with an […] amplifier, filtered at 1 kHz with a four-pole Bessel filter, digitized at 500 μs intervals, and stored using a Digidata-1322A analog/digital interface along with the pCLAMP software (all from MDS Analytical Technologies, Sunnyvale, CA). To plot the activation and the desensitization curves, a patch was moved from the NMDA- and glycine-free external solution to the external solution containing 0 to 100 μM NMDA and 30 μM glycine for 3 s (the desensitization prepulse), and then moved to another external solution containing 300 μM NMDA and 30 μM glycine for 3 s (the test pulse) before being moved back to the NMDA-free external solution again. The amplitude of the sustained currents in the desensitization prepulse in each different concentration of NMDA is normalized to the maximal current and plotted against the NMDA concentration to obtain the activation curve. […]

For assay [2], the target named is T2, E661AE662A double mutant NMDA channel (Rattus norvegicus, UniProt P35439+Q00960, E661A/E662A).
T2 construct: expressed in transfected cells; host or cells: Xenopus laevis oocytes (cRNA injection)
T2 sequence (Q00960 27-1482, other chains not shown): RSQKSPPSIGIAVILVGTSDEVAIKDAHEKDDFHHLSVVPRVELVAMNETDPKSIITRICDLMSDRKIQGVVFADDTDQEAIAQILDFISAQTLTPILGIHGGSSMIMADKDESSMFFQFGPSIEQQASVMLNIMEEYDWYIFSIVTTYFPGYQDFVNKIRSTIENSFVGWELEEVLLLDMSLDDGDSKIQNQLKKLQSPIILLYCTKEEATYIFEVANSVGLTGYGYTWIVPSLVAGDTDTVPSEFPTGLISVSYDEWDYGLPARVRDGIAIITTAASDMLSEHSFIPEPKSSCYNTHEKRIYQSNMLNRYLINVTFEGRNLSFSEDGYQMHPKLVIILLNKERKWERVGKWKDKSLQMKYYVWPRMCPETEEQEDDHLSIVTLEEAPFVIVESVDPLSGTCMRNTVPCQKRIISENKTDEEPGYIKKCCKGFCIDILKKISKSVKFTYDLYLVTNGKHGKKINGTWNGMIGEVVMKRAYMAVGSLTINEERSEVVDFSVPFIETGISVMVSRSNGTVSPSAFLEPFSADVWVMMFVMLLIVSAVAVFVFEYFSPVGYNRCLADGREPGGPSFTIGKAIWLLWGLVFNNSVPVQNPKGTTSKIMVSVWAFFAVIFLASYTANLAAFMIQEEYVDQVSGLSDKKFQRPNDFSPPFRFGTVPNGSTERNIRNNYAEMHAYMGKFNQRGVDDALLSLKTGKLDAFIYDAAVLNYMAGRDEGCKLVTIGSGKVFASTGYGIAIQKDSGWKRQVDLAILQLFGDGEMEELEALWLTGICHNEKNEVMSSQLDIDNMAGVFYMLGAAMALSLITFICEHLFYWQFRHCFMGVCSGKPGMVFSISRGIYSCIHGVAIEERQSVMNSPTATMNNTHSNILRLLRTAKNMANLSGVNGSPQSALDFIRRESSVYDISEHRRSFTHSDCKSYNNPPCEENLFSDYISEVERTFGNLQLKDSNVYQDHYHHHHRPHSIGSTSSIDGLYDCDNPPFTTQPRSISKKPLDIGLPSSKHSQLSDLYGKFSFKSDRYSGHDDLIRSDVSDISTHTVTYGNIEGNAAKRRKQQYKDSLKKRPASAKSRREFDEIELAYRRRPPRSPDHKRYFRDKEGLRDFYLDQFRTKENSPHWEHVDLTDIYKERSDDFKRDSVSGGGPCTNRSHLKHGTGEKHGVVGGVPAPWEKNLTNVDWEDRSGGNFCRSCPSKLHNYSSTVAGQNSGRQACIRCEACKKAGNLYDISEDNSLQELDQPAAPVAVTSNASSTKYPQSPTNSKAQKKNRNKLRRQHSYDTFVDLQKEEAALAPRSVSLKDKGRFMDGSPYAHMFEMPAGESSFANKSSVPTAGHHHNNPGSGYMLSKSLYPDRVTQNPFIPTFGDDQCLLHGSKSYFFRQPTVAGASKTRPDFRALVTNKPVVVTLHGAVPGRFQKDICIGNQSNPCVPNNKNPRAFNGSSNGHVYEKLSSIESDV
Nature of the assay: Outside-out patch recordings, E661AE662A double mutant NMDA channel. The assay is classed as cell-based. As to conditions: 2 mM extracellular Ca2+; n = 6, WT n = 9; P = 5.1*10^−5. The protocol: as §1, §2
Oocytes were placed in a recording chamber containing Mg^2+-free bath solution (150 mM NaMeSO3, 5 mM NaCl, and 10 mM HEPES; pH 7.4). Outside-out patch recordings were obtained using fire-polished pipettes pulled from borosilicate capillaries (outer diameter, 1.55–1.60 mm; Hilgenberg, Malsfeld, Germany). Recording pipettes ([…]) were filled with the pipette solution containing 150 mM NaMeSO3, 5 mM NaCl, 5 mM EGTA, and 10 mM HEPES (pH 7.4). A seal was formed, and the outside-out patch configuration was obtained in Tyrode’s solution (150 mM NaCl, 4 mM KCl, 2 mM MgCl2, 2 mM CaCl2, and 10 mM HEPES; pH 7.4). The patch was then lifted from the bottom of the chamber and moved in front of a set of “theta glass” tubes (2.0 mm outer diameter pulled to an opening of ~300 μm in width; Warner Instrument, Hamden, CT) emitting external recording solutions. The standard external solution was Mg^2+-free Ca^2+-free Tyrode’s solution (pH 7.4), but 2 mM Ca^2+ or 0.1–100 μM Cd^2+ may be added to the external recording solution as specified in each different experimental condition. The glass-tube holder was connected to a stepper motor (SF-77B perfusion system, Warner Instrument) to achieve fast switch for rapid solution change. Drugs and salts were purchased from Sigma (St. Louis, MO). NMDA, glycine, and Cd^2+ were dissolved in water to make 100, 100, and 10 mM stock solutions, respectively. The stock solutions were then diluted into the external recording solution to make 1 to 100 μM Cd^2+, 1 to 300 μM NMDA, and 30 μM glycine. The NMDA currents were recorded at a membrane potential of −70 mV and at room temperature (~25 °C) with an […] amplifier, filtered at 1 kHz with a four-pole Bessel filter, digitized at 500 μs intervals, and stored using a Digidata-1322A analog/digital interface along with the pCLAMP software (all from MDS Analytical Technologies, Sunnyvale, CA). […]

Assay [3] deals with triple mutant NMDA channel (three negatively charged DRPEER residues neutralized). Also on record: method as in PMID 12451122. The following applies: 1 mM Ca2+; decreased from 56 pS; cited from earlier work.
In a further assay the test system is wild-type NMDA channel. Also on record: method as in PMID 12451122. The following applies: 1 mM Ca2+; decreased from 73 pS; cited from earlier work.
Assay [4] addresses T3, T647A (GluN2B) mutant NMDA channel (Rattus norvegicus, UniProt P35439+Q00960, T647A).
T3 construct: expressed in transfected cells; host or cells: Xenopus laevis oocytes (cRNA injection)
Nature of the assay: Outside-out patch recordings, T647A (GluN2B) mutant NMDA channel. Type of assay: cell-based. As to conditions: 2 mM Ca2+; P = 0.028. The protocol:
as §1, §2
Oocytes were placed in a recording chamber containing Mg^2+-free bath solution (150 mM NaMeSO3, 5 mM NaCl, and 10 mM HEPES; pH 7.4). […] The NMDA currents were recorded at a membrane potential of −70 mV and at room temperature (~25 °C) with an […] amplifier, filtered at 1 kHz with a four-pole Bessel filter, digitized at 500 μs intervals, and stored using a Digidata-1322A analog/digital interface along with the pCLAMP software (all from MDS Analytical Technologies, Sunnyvale, CA). […]

Each structure is given as a SMILES string. Read-outs that look alike come from different tables or passages of the source.

T1 sequence (Q00960 27-1482, other chains not shown): as above
T3 sequence (Q00960 27-1482 T647A, other chains not shown): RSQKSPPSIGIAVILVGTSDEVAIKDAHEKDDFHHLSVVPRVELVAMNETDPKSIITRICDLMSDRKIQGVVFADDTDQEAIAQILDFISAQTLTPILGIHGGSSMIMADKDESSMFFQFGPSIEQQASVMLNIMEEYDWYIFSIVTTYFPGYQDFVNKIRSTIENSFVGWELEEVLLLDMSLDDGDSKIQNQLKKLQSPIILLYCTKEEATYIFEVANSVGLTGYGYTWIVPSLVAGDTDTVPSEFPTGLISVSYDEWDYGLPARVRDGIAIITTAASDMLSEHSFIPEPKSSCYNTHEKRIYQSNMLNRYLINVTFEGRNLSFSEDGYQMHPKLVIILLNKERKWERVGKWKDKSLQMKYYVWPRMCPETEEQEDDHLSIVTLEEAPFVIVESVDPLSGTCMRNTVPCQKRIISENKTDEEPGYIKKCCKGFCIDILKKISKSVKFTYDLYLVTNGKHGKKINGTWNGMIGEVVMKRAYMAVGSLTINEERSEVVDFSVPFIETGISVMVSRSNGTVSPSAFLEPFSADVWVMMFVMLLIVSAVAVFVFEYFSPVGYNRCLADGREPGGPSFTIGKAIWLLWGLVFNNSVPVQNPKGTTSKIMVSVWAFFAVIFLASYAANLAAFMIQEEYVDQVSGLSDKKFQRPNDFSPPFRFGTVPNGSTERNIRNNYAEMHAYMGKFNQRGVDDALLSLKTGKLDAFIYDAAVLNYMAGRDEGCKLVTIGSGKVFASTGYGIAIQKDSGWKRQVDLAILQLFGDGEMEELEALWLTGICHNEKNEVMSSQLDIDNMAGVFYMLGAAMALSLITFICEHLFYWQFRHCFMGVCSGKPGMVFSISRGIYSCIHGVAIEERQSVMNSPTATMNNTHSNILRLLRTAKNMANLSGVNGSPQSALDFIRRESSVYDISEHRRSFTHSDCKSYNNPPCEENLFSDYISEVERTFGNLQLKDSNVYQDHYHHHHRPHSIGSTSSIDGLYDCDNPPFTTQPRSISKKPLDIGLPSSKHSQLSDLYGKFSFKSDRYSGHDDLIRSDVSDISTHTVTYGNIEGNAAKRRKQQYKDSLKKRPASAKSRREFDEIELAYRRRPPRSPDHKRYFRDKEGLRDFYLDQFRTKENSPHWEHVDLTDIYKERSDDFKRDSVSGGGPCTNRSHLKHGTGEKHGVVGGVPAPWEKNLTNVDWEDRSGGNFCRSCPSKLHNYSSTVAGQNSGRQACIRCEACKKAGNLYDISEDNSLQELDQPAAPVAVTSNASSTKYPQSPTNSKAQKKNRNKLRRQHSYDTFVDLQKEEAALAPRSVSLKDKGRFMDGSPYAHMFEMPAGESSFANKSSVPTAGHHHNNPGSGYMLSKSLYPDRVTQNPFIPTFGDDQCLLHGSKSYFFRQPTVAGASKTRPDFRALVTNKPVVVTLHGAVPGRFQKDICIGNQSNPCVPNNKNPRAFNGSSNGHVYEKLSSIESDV

On to `CN[C@H](CC(=O)O)C(=O)O` [NMDA], for which the Kd in assay [1] (read-out: apparent dissociation constant of NMDA (KN), fit to activation data) is 47 µM; in assay [1] (read-out: apparent dissociation constant of NMDA (KN), fit to desensitization data) it was 35 µM.
In the case of `[Ca+2]` [Ca^2+], in assay [2], the “effect on sustained current (relative current) compared with WT channel” value is “significantly decreased”. For the same molecule, the “overall current flow through the NMDA channel in Ca2+” value was 45 pS in assay [3] and 41 pS in the assay with wild-type NMDA channel. Also, the “effect on NMDAR current, cation present during the NMDA pulse” value in assay [1] (2 mM extracellular Ca2+, 300 μM NMDA plus 30 μM glycine) is reported as “decreases the NMDAR current”. The “effect on NMDAR current peak, cation applied before but not during the NMDA pulse” value in assay [1] (2 mM extracellular Ca2+, closed channel) is listed as “evident decrease of the NMDAR current peak”. In addition, in assay [4], the “relative hook current after wash-off of agonists and blocking cation, compared with WT channel” value was “significantly larger hook current”.

The record behind these values is PMC5111045, “Modulation of NMDA channel gating by Ca^2+ and Cd^2+ binding to the external pore mouth” (Scientific Reports, 2016).
